Experimental data from paper PMC5296967, “Binding affinity of five PBPs to Ostrinia sex pheromones” (BMC Molecular Biology, 2017).
“And” between values parts separate entries of the source, which are not always exact repeats. Equal values may be shown once. “Also recorded” adds a separate entry of the source.

How the values were obtained:
PBPLma = target: PBPLma; set-up: method as in PMID 12529170; conditions: read-out: binding affinities; cited from earlier work
recombinant OfurPBP2 = recombinant OfurPBP2 (Ostrinia furnacalis, UniProt E7CCA0); assay: Competitive fluorescence binding assay with 1-NPN probe, OfurPBP2; conditions: dash = undetectable interaction; for IC50: pH 7.4, displacement of 1-NPN, mean ± SE; for Ki: pH 7.4, mean ± SE
Chain of recombinant OfurPBP2 (E7CCA0 entry or part of it): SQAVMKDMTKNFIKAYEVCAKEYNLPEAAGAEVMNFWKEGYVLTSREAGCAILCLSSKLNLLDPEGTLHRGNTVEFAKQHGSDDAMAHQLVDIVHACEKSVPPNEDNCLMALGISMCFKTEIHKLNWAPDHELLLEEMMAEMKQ
Procedure: (§1) The 1-NPN probe was excited at 337 nm, and emission spectra were recorded between 380 and 450 nm on a Shimadzu fluorescence spectrophotometer (Shimadzu, Japan). Each trial was run in triplicate, and Scatchard plots of the ratio of bound to unbound ligand were created using Microsoft Excel 2010. Competitive binding assays were performed with each of the OfurPBPs using 1-NPN as the probe. Assay reactions were comprised of 2 µM of each OfurPBP diluted individually in 2.0 ml 20 mM Tris–HCl, pH 7.4, which were then titrated with 1.0 mM increments sex pheromone diluted in methanol to a final concentrations of 1–6 µM. The synthetic standards that correspond to the sex pheromones of O. furnacalis, O. nubilalis and other lepidopteran species were purchased from Sigma-Aldrich (Shanghai, China; Additional file 2: S2). Excitation and emission spectra were recorded from triplicate assays as described above. The binding affinity of each purified OfurPBP to the different sex pheromones was measured by calculation of binding constants via competitive fluorescence-binding assay. In brief, relative fluorescent intensities were analyzed by GraphPad Prism 5 software (GraphPad Software Inc, La Jolla, CA) and calculation was done using the equation: Ki = [IC50]/(1 + [1-NPN]/K1-NPN), where [1-NPN] is the free concentration of 1-NPN and K1-NPN is the dissociation constant of the complex protein/1-NPN [19, 20]. Sex pheromone binding affinity with different PBPs was analyzed using One-way ANOVA in SAS 8.0 (SAS Institute Inc., Cary, NC, USA).

[1] = test system: OfurPBP3 mutants F12S, I52N, I94R, and I113N; assay: Competitive binding assay, statements on all OfurPBP3 mutants together; set-up: species or system Ostrinia furnacalis; conditions: for binding to all mutated OfurPBPs (in words): pH 7.4; for fold reduction in OfurPBP3 affinity caused by Ser12, Asn52, Arg94, Asn113 variants: range over the four mutants vs wild type
Procedure: as §1
(§2) Four amino acids of OfurPBP3 with some of the most negative estimated E total values were mutated using Quick-change lightning site-directed mutagenesis kit (Stratagene, La Jolla, CA, USA); Ile to Asn at position 113 ([…]), m2 Phe to Ser at position 12 (F12S), m3 Ile to Asn at position 52 (I52N), and m4 […] to Arg at position 94 (I94R). The sequence of each primers used to alter the aforementioned sites by nucleotide mismatch are shown in Additional file 3: S3. After initial denaturation at 94 °C for 5 min, the subsequent PCR followed with 30 cycles of 94 °C for 30 s, 56 °C for 30 s, and final extension at 72 °C for 1 min. Changes within site-directed mutant fragments were verified by cloning into the pGEM-T Easy vector (Promega) by Sanger sequencing. All mutated OfurPBPs proteins were expressed and used within in vitro binding assays as described above.

[2] = test system: OfurPBP1, OfurPBP2, OfurPBP3, OfurPBP4 and OfurPBP5; assay: Competitive binding assay, statements on all five OfurPBPs together; set-up: species or system Ostrinia furnacalis; conditions: pH 7.4
Procedure: as §1

recombinant OfurPBP5 = recombinant OfurPBP5 (Ostrinia furnacalis, UniProt E7CCA3); assay: Competitive fluorescence binding assay with 1-NPN probe, OfurPBP5; conditions: pH 7.4; for IC50 / Ki: OfurPBP5, mean ± SE, dash = undetectable interaction; for IC50: displacement of 1-NPN
Chain of recombinant OfurPBP5 (E7CCA3 entry or part of it): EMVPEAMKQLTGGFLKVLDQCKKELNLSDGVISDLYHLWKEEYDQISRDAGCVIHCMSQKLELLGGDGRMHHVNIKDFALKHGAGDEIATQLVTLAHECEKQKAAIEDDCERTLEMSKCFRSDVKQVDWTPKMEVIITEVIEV
Procedure: as §1

OfurPBP3 mutant M4: I94R = OfurPBP3 mutant M4: I94R (Ostrinia furnacalis, UniProt E7CCA1, L116R); assay: Competitive binding assay, OfurPBP3 mutant M4 I94R
Chain of OfurPBP3 mutant M4: I94R (E7CCA1 entry or part of it L116R): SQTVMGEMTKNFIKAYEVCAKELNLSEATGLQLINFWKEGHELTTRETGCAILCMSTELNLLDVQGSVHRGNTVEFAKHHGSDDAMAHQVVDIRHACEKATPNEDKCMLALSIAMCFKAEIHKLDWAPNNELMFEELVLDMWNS
Procedure: as §1, §2

recombinant OfurPBP4 = recombinant OfurPBP4 (Ostrinia furnacalis, UniProt E7CCA2); assay: Competitive fluorescence binding assay with 1-NPN probe, OfurPBP4; conditions: pH 7.4; for IC50 / Ki: OfurPBP4, mean ± SE, dash = undetectable interaction; for IC50: displacement of 1-NPN
Chain of recombinant OfurPBP4 (E7CCA2 entry or part of it): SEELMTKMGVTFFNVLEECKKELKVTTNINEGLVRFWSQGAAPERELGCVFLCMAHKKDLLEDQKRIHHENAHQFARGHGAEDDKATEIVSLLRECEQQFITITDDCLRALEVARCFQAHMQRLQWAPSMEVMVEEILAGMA
Procedure: as §1

recombinant OfurPBP1 = recombinant OfurPBP1 (Ostrinia furnacalis, UniProt E7CC99); assay: Competitive fluorescence binding assay with 1-NPN probe, OfurPBP1; conditions: mean ± SE, dash = undetectable interaction; for Ki: pH 7.4, Ki = [IC50]/(1 + [1-NPN]/K1-NPN); for IC50: pH 7.4, displacement of 1-NPN
Chain of recombinant OfurPBP1 (E7CC99 entry or part of it): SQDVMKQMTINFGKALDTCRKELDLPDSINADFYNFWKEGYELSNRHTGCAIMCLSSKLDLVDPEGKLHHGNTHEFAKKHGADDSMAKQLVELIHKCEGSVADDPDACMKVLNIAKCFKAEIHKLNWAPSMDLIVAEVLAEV
Procedure: as §1

OfurPBP3 mutant M2: F12S = OfurPBP3 mutant M2: F12S (Ostrinia furnacalis, UniProt E7CCA1, F34S); assay: Competitive binding assay, OfurPBP3 mutant M2 F12S
Chain of OfurPBP3 mutant M2: F12S (E7CCA1 entry or part of it F34S): as the sequence (E7CCA1 entry or part of it L116R) above, with F12S, R94L counted along it
Procedure: as §1, §2

[3] = target: OfurPBP3 mutant M1: I113N (Ostrinia furnacalis, UniProt E7CCA1, I135N); assay: Competitive binding assay, OfurPBP3 mutant M1 I113N; conditions: for fold reduction in affinity compared to wild-type OfurPBP3: mutant I113N vs wildtype
Chain of OfurPBP3 mutant M1: I113N (E7CCA1 entry or part of it I135N): as the sequence (E7CCA1 entry or part of it L116R) above, with R94L, I113N counted along it
Procedure: as §1, §2

recombinant OfurPBP3 = recombinant OfurPBP3 (Ostrinia furnacalis, UniProt E7CCA1); assay: Competitive fluorescence binding assay with 1-NPN probe, OfurPBP3 wild type; conditions: pH 7.4; for IC50 / Ki: OfurPBP3 wild type, mean ± SE, dash = undetectable interaction; for IC50: displacement of 1-NPN
Chain of recombinant OfurPBP3 (E7CCA1 entry or part of it): as the sequence (E7CCA1 entry or part of it L116R) above, with R94L counted along it
Procedure: as §1

OfurPBP3 mutant M3: I52N = OfurPBP3 mutant M3: I52N (Ostrinia furnacalis, UniProt E7CCA1, I74N); assay: Competitive binding assay, OfurPBP3 mutant M3 I52N
Chain of OfurPBP3 mutant M3: I52N (E7CCA1 entry or part of it I74N): as the sequence (E7CCA1 entry or part of it L116R) above, with I52N, R94L counted along it
Procedure: as §1, §2

Structure (SMILES): CC(O)C(C)O (centres unmarked) [butane-2,3-diol]
- Kd (PBPLma): 2.5 µM

Structure (SMILES): CC/C=C/CCCCCCCCCCO [E11-14:OH, (E)-11-Tetradecenol]
- IC50 (recombinant OfurPBP2): > 6 µM
- binding to all mutated OfurPBPs (in words) [1]: weak binding affinity
- binding to all five OfurPBPs (in words) [2]: weak or lack of detectable binding
- IC50 (recombinant OfurPBP5): > 6 µM
- Ki (recombinant OfurPBP5): > 6 µM
- IC50 (OfurPBP3 mutant M4: I94R): > 6 µM
- IC50 (recombinant OfurPBP4): > 6 µM
- Ki (recombinant OfurPBP4): > 6 µM
- Ki (recombinant OfurPBP1): > 6 µM
- IC50 (recombinant OfurPBP1): > 6 µM
- IC50 (OfurPBP3 mutant M2: F12S): > 6 µM
- IC50 [3]: > 6 µM
- IC50 (recombinant OfurPBP3): > 6 µM
- Ki (recombinant OfurPBP3): > 6 µM
- binding to wildtype OfurPBP3 (in words) (recombinant OfurPBP3): failed to demonstrate this function
- IC50 (OfurPBP3 mutant M3: I52N): > 6 µM

Structure (SMILES): CCCC/C=C\CCCCCCCCO [Z9-14:OH, (Z)-9-Tetradecenol]
- IC50 (recombinant OfurPBP2): > 6 µM
- Ki (recombinant OfurPBP2): > 6 µM
- binding to all mutated OfurPBPs (in words) [1]: weak binding affinity
- binding to all five OfurPBPs (in words) [2]: weak or lack of detectable binding
- IC50 (recombinant OfurPBP5): > 6 µM
- Ki (recombinant OfurPBP5): > 6 µM
- IC50 (OfurPBP3 mutant M4: I94R): > 6 µM
- IC50 (recombinant OfurPBP4): > 6 µM
- Ki (recombinant OfurPBP4): > 6 µM
- Ki (recombinant OfurPBP1): > 6 µM
- IC50 (recombinant OfurPBP1): > 6 µM
- IC50 (OfurPBP3 mutant M2: F12S): > 6 µM
- IC50 [3]: > 6 µM
- binding to I113N (in words) ([3]; pH 7.4): ability to bind
- IC50 (recombinant OfurPBP3): > 6 µM
- Ki (recombinant OfurPBP3): > 6 µM
- binding to wildtype OfurPBP3 (in words) (recombinant OfurPBP3): failed to demonstrate this function
- IC50 (OfurPBP3 mutant M3: I52N): > 6 µM

Structure (SMILES): C/C=C/CCCCCCCCCCCOC(C)=O [E12-14:OAc, (E)-12-Tetradecenyl acetate]
- IC50 (recombinant OfurPBP2): 4.88 ± 0.1 µM
- Ki (recombinant OfurPBP2): 4.12 ± 0.08 µM
- fold reduction in OfurPBP3 affinity caused by Ser12, Asn52, Arg94, Asn113 variants [1]: 1.7- to 4.6 fold
- IC50 (recombinant OfurPBP5): > 6 µM
- IC50 (OfurPBP3 mutant M4: I94R): > 6 µM
- IC50 (recombinant OfurPBP4): > 6 µM
- Ki (recombinant OfurPBP4): > 6 µM
- binding to OfurPBP4 (in words) (recombinant OfurPBP4): incapable of binding; also recorded: no detectable binding
- Ki (recombinant OfurPBP1): 5.01 ± 0.14 µM
- IC50 (recombinant OfurPBP1): 5.77 ± 0.16 µM
- IC50 (OfurPBP3 mutant M2: F12S): > 6 µM
- IC50 [3]: > 6 µM
- IC50 (recombinant OfurPBP3): 3.81 ± 0.02 µM
- Ki (recombinant OfurPBP3): 2.85 µM and 2.84 µM
- IC50 (OfurPBP3 mutant M3: I52N): > 6 µM

Structure (SMILES): CC(=O)C(C)O (centres unmarked) [3-hydroxy-butan-2-on]
- Kd (PBPLma): 3.8 µM

Structure (SMILES): C/C=C\CCCCCCCCCCCOC(C)=O [Z12-14:OAc, (Z)-12-Tetradecenyl acetate]
- IC50 (recombinant OfurPBP2): 4.96 ± 0.23 µM
- Ki (recombinant OfurPBP2): 4.19 ± 0.09 µM
- fold reduction in OfurPBP3 affinity caused by Ser12, Asn52, Arg94, Asn113 variants [1]: 1.7- to 4.6 fold
- IC50 (recombinant OfurPBP5): > 6 µM
- binding to OfurPBP5 (in words) (recombinant OfurPBP5): weakly
- IC50 (OfurPBP3 mutant M4: I94R): > 6 µM
- IC50 (recombinant OfurPBP4): > 6 µM
- Ki (recombinant OfurPBP1): 4.24 ± 0.82 µM
- IC50 (recombinant OfurPBP1): 4.88 ± 0.94 µM
- IC50 (OfurPBP3 mutant M2: F12S): > 6 µM
- fold reduction in affinity compared to wild-type OfurPBP3 (OfurPBP3 mutant M2: F12S; mutant F12S vs wildtype): ~ 2 fold
- IC50 [3]: > 6 µM
- fold reduction in affinity compared to wild-type OfurPBP3 [3]: ~ 2 fold
- IC50 (recombinant OfurPBP3): 3.83 ± 0.06 µM
- Ki (recombinant OfurPBP3): 2.86 ± 0.04 µM
- IC50 (OfurPBP3 mutant M3: I52N): > 6 µM

Structure (SMILES): CC/C=C\CCCCCCCCCCOC(C)=O [Z11-14:OAc, (Z)-11-Tetradecenyl acetate]
- IC50 (recombinant OfurPBP2): 3.49 ± 0.06 µM
- Ki (recombinant OfurPBP2): 2.95 ± 0.05 µM
- binding to all five OfurPBPs (in words) [2]: relatively high affinities
- IC50 (recombinant OfurPBP5): 3.64 ± 0.28 µM
- Ki (recombinant OfurPBP5): 2.18 ± 0.17 µM
- IC50 (OfurPBP3 mutant M4: I94R): > 6 µM
- IC50 (recombinant OfurPBP4): 1.18 ± 0.05 µM
- Ki (recombinant OfurPBP4): 1.09 ± 0.05 µM
- Ki (recombinant OfurPBP1): 4.08 ± 0.12 µM
- IC50 (recombinant OfurPBP1): 4.69 ± 0.14 µM
- IC50 (OfurPBP3 mutant M2: F12S): > 6 µM
- IC50 [3]: > 6 µM
- fold reduction in affinity compared to wild-type OfurPBP3 [3]: ~8.25 fold
- IC50 (recombinant OfurPBP3): 3.27 ± 0.24 µM
- Ki (recombinant OfurPBP3): 2.44 ± 0.18 µM
- IC50 (OfurPBP3 mutant M3: I52N): > 6 µM

Structure (SMILES): CC/C=C/CCCCCCCCCCOC(C)=O [E11-14:OAc, (E)-11-Tetradecenyl acetate]
- IC50 (recombinant OfurPBP2): 3.28 ± 0.01 µM
- Ki (recombinant OfurPBP2): 2.77 ± 0.01 µM
- binding to all five OfurPBPs (in words) [2]: relatively high affinities
- IC50 (recombinant OfurPBP5): 1.9 ± 0.07 µM
- Ki (recombinant OfurPBP5): 1.14 ± 0.04 µM
- IC50 (OfurPBP3 mutant M4: I94R): > 6 µM
- IC50 (recombinant OfurPBP4): 2.31 ± 0.57 µM
- Ki (recombinant OfurPBP4): 2.13 ± 0.53 µM
- Ki (recombinant OfurPBP1): 4.61 ± 0.02 µM
- IC50 (recombinant OfurPBP1): 5.3 ± 0.02 µM
- IC50 (OfurPBP3 mutant M2: F12S): > 6 µM
- IC50 [3]: > 6 µM
- IC50 (recombinant OfurPBP3): 2.64 ± 0.15 µM
- Ki (recombinant OfurPBP3): 1.97 ± 0.11 µM
- IC50 (OfurPBP3 mutant M3: I52N): > 6 µM
